Key:
[1] = tested on: insulin-producing cell population obtained by the differentiation from iPS cells (CHGA-negative cells; insulin-positive and NKX6.1-positive cells); assay: Flow cytometry of insulin-producing cell population treated with PLK inhibitor for last 4 days of differentiation (Example 1); type: cell-based; conditions: 3 μM; for Proportion of CHGA-negative and Ki67-negative cells / Proportion of CHGA-negative and Ki67-positive cells / Proportion of insulin-positive and NKX6.1-positive cells: 4 days treatment, flow cytometry
Source text: The number of CHGA-negative (and Ki67-positive or Ki67-negative) cells in the cell population obtained by each of the above methods 1) and 2) was counted by flow cytometry to determine the proportion of unintended cells, that is, a CHGA-negative (and Ki67-positive or Ki67-negative) rate, in each cell population.
The number of insulin-positive and NKX6.1-positive cells in the cell population obtained by each of the above methods 1) and 2) was counted by flow cytometry to determine the proportion of the cells of interest, that is, insulin-positive and NKX6.1-positive cells, in each method.

[2] = tested on: insulin-producing cell population obtained by the differentiation from iPS cells (CHGA-negative cells; insulin-positive and NKX6.1-positive cells); assay: Insulin-producing cell population treated with PLK inhibitor for 7 days in 30 mL reactor for culture (Example 2); type: cell-based; conditions: 3 μM, 7 days treatment
Procedure: Specifically, the endocrine progenitor cell population obtained by the differentiation from iPS cells was cultured for 4 days in a medium for induction of differentiation in a 30 mL reactor for culture and thereby differentiated into an insulin-producing cell population.
For a control, the endocrine progenitor cell population obtained by the differentiation from iPS cells was cultured for 11 days in a medium for induction of differentiation in a 30 mL reactor for culture and thereby differentiated into an insulin-producing cell population.

[3] = last 4 days of differentiation into insulin-producing cells

COc1ccc2c(c1)[C@@]1(C[C@@H]1c1ccc3c(/C=C/c4ccc(CN5C[C@@H](C)O[C@@H](C)C5)cc4)n[nH]c3c1)C(=O)N2 [CAS1338800-06-8, (1S,2R)-2-[3-[(1E)-2-[4-[[(2R,6S)-2,6-dimethyl-4-morpholinyl]methyl]phenyl]ethenyl]-1H-indazol-6-yl]-5′-methoxy-spiro[cyclopropane-1,3′-[^3H]indol]-2′(1′H)-one]
Proportion of CHGA-negative and Ki67-negative cells ([1]; first experiment): 11.4% | Proportion of CHGA-negative and Ki67-positive cells ([1]; first experiment): 0.8% | Proportion of insulin-positive and NKX6.1-positive cells ([1]; first experiment): 22.4% | Proportion of CHGA-negative and Ki67-negative cells ([1]; second experiment): 12.4% | Proportion of CHGA-negative and Ki67-positive cells ([1]; second experiment): 0.2% | Proportion of insulin-positive and NKX6.1-positive cells ([1]; second experiment): 23.0% | Proportion of CHGA-negative cells (both Ki67-positive and Ki67-negative) as compared with a control [1, 3]: markedly decreased | Proportion of the cells of interest (insulin-positive and NKX6.1-positive cells) as compared with a control [1, 3]: markedly increased | Proportion of CHGA-negative cells (both Ki67-positive and Ki67-negative) as compared with a control [2]: markedly decreased | Proportion of insulin-positive (and NKX6.1-positive) cells as compared with a control [2]: markedly increased
